Laboratory results as given in US10800788B2, “4-(aryl)-N-(3-alkoxyfuro[2,3-b]pyrazin-2-yl)-piperazine-1-carboxamide derivative and antiproliferative effect thereof” (Dongguk University Industry-Academic Cooperation Foundation, priority 2016, dated 2020).

Assays:
[1] = tested on: MDA-MB-231 (breast cancer) cell line; assay: Cell growth inhibition experiment (SRB), MDA-MB-231; format: cell-based, human; settings: Homo sapiens, MDA-MB-231, 96 h, 96 hours incubation
Experimental: (§1) The cell lines below were used in order to confirm the efficacy of the compounds synthesized in Examples 1 to 60. Human PANC-1 (pancreatic cancer) and MDA-MB-231 (breast cancer) cell lines were obtained from the American Type Culture Collection (ATCC; Manassas, Va.); and HN31 (head and neck cancer) and UMRC2 (kidney cancer) cell lines were secured from the United States National Institutes of Health (Bethesda, Md.). The MDA-MB-231, UMRC2, HN31, and PANC-1 cell lines were cultured in Dulbecco modified Eagle medium (DMEM; Invitrogen, Carlsbad, Calif.) containing FBS (10%), HEPES (10 mM), penicillin (100 U/mL), and streptomycin (100 μg/mL). All cell lines were cultured in an incubator (37° C., 5% CO2).
(§2) The 4-(aryl)-N-(3-alkoxyfuro[2,3-b]pyrazin-2-yl)-piperazine-1-carboxamide derivative compounds synthesized according to Examples 1 to 60 of the present invention were treated with various human tissue-derived cancer cell lines cultured according to Experimental Example 1, and thus the inhibitory effect of the growth of human cancer cells was confirmed. The cell growth inhibition experiment was conducted using the sulforhodamine B (SRB) technique (Skehan et al., J. National Cancer Institute, 1990, 82: 1107-1112). Specifically, each cell line was seeded in a 96-well plate at a density of 2 to 3×10^3 cells/well, cultured overnight, and then treated with the 4-(aryl)-N-(3-alkoxyfuro[2,3-b]pyrazin-2-yl)-piperazine-1-carboxamide derivative compounds of the present invention. The experiment was repeated 3 times for each compound. Cells treated with each compound were additionally incubated for 96 hours, fixed with 10% trichloroacetic acid (TCA), and then left at 4° C. for 1 hour. The resultant was washed 3 times with distilled water. Thereafter, each cell was treated with 0.4% sulforhodamine B dissolved in 1% acetic acid, stained for 30 minutes, and then washed 4 times with 1% acetic acid. The resultant was dried in the air. After shaking the resultant in Tris solution (10 mM) for 5 minutes, the absorbance was measured at 530 nm using a Benchmark Plus Microplate reader (Bio-Rad Laboratories, Hercules, Calif.).
(§3) In order to convert the OD530 value to the number of viable cells per each well, the measured OD530 value was compared to the standard OD530-vs.-cell number curve of each cell line. The percent survival was calculated using the following formula: % survival=Nlive cells(test)/Nlive cells(control)×100

[2] = tested on: HUVEC; assay: Cell growth inhibition experiment (SRB), HUVEC; format: cell-based, human; settings: Homo sapiens, HUVEC, 96 h, 96 hours incubation, read-out: IC50 (μM) […]
Experimental: as §2, §3

[3] = tested on: UMRC2 (kidney cancer) cell line; assay: Cell growth inhibition experiment (SRB), UMRC2; format: cell-based, human; settings: Homo sapiens, UMRC2, 96 h, 96 hours incubation
Experimental: as §1, §2, §3

[4] = tested on: PANC-1 (pancreatic cancer) cell line; assay: Cell growth inhibition experiment (SRB), PANC-1; format: cell-based; settings: Homo sapiens, PANC-1, 96 h, 96 hours incubation
Experimental: as §1, §2, §3

[5] = tested on: HEK293; assay: Cell growth inhibition experiment (SRB), HEK293; format: cell-based, human; settings: Homo sapiens, HEK293, 96 h, 96 hours incubation, read-out: IC50 (μM) for cancer cell line HEK293
Experimental: as §2, §3

[6] = tested on: HT29; assay: Cell growth inhibition experiment (SRB), HT29; format: cell-based, human; settings: Homo sapiens, HT-29, 96 h, 96 hours incubation, read-out: IC50 (μM) for cancer cell line HT29
Experimental: as §2, §3

[7] = tested on: SK-OV-3; assay: Cell growth inhibition experiment (SRB), SK-OV-3; format: cell-based, human; settings: Homo sapiens, SK-OV-3, 96 h, 96 hours incubation, read-out: IC50 (μM) for cancer cell line SK-OV-3
Experimental: as §2, §3

[8] = tested on: A549; assay: Cell growth inhibition experiment (SRB), A549; format: cell-based; settings: Homo sapiens, A549, 96 h, 96 hours incubation, read-out: IC50 (μM) for cancer cell line A549
Experimental: as §2, §3

[9] = tested on: HN31 (head and neck cancer) cell line; assay: Cell growth inhibition experiment (SRB), HN31; format: cell-based, human; settings: Homo sapiens, 96 h, 96 hours incubation
Experimental: as §1, §2, §3

## CCOc1nc2occc2nc1NC(=O)N1CCN(c2cc(C(F)(F)F)cc(C(F)(F)F)c2)CC1 [Example 19, 4-(3,5-Bis(trifluoromethyl)phenyl)-N-(3-ethoxyfuro[2,3-b]pyrazin-2-yl)piperazine-1-carboxamide]
[1]
  IC50: 0.34 µM
[2]
  IC50: 0.68 µM
[3]
  IC50: 0.68 µM
[4]
  IC50: 1.23 µM
[5]
  IC50: 1.23 µM
[6]
  IC50: 0.71 µM
[7]
  IC50: < 2.5 µM
[8]
  IC50: 0.44 µM
[9]
  IC50: 0.36 µM

## COc1nc2oc(Cl)cc2nc1NC(=O)N1CCN(c2cccc(OC(F)(F)F)c2)CC1 [Example 50, N-(6-Chloro-3-methoxy-furo[2,3-b]pyrazin-2-yl)-4-(3-(trifluoromethoxy)phenyl)piperazine-1-carboxamide]
[1]
  IC50: < 2.5 µM
[2]
  IC50: < 2.5 µM
[3]
  IC50: < 2.5 µM
[4]
  IC50: < 2.5 µM
[5]
  IC50: < 2.5 µM
[6]
  IC50: < 2.5 µM
[7]
  IC50: < 2.5 µM
[8]
  IC50: < 2.5 µM
[9]
  IC50: < 2.5 µM

## CCOc1nc2oc(C)cc2nc1NC(=O)N1CCN(c2cc(F)cc(OC)c2)CC1 [Example 33, N-(3-Ethoxy-6-methylfuro[2,3-b]pyrazin-2-yl)-4-(3-fluoro-5-methoxyphenyl)piperazine-1-carboxamide]
[1]
  IC50: 0.15 µM
[2]
  IC50: < 2.5 µM
[3]
  IC50: 0.21 µM
[4]
  IC50: 0.24 µM
[5]
  IC50: 0.51 µM
[6]
  IC50: < 2.5 µM
[7]
  IC50: < 2.5 µM
[8]
  IC50: 0.41 µM
[9]
  IC50: 0.31 µM

## CCOc1nc2oc(Cl)cc2nc1NC(=O)N1CCN(c2cc(F)cc(OC)c2)CC1 [Example 53, N-(6-Chloro-3-ethoxyfuro[2,3-b]pyrazin-2-yl)-4-(3-fluoro-5-methoxyphenyl)piperazine-1-carboxamide]
[1]
  IC50: 0.48 µM
[2]
  IC50: 1.88 µM
[3]
  IC50: 0.32 µM
[4]
  IC50: 0.56 µM
[5]
  IC50: 1.98 µM
[6]
  IC50: 1.67 µM
[7]
  IC50: 1.91 µM
[8]
  IC50: 1.68 µM
[9]
  IC50: 0.45 µM

## COc1cc(OCCN(C)C)cc(N2CCN(C(=O)Nc3nc4ccoc4nc3OC)CC2)c1 [Example 4, 4-(3-(2-(Dimethylamino)ethoxy)-5-methoxyphenyl)-N-(3-methoxyfuro[2,3-b]pyrazin-2-yl)piperazine-1-carboxamide]
[1]
  IC50: 1.13 µM
[2]
  IC50: 1.25 µM
[3]
  IC50: 0.54 µM
[4]
  IC50: 0.68 µM
[5]
  IC50: < 2.5 µM
[6]
  IC50: < 2.5 µM
[7]
  IC50: < 2.5 µM
[8]
  IC50: < 2.5 µM
[9]
  IC50: 1.54 µM

## COc1nc2occc2nc1NC(=O)N1CCN(c2cc(C(F)(F)F)cc(C(F)(F)F)c2)CC1 [Example 9, 4-(3,5-Bis(trifluoromethyl)phenyl)-N-(3-methoxyfuro[2,3-b]pyrazin-2-yl)piperazine-1-carboxamide]
[1]
  IC50: < 2.5 µM
[2]
  IC50: < 2.5 µM
[3]
  IC50: < 2.5 µM
[4]
  IC50: < 2.5 µM
[5]
  IC50: < 2.5 µM
[6]
  IC50: < 2.5 µM
[7]
  IC50: < 2.5 µM
[8]
  IC50: < 2.5 µM
[9]
  IC50: < 2.5 µM

## COc1cc(OC)cc(N2CCN(C(=O)Nc3nc4cc(C)oc4nc3OC)CC2)c1 [Example 21, 4-(3,5-Dimethoxyphenyl)-N-(3-methoxy-6-methylfuro[2,3-b]pyrazin-2-yl)piperazine-1-carboxamide]
[1]
  IC50: 0.44 µM
[2]
  IC50: < 2.5 µM
[3]
  IC50: 1.74 µM
[4]
  IC50: 2.12 µM
[5]
  IC50: 1.25 µM
[6]
  IC50: 1.85 µM
[7]
  IC50: 1.85 µM
[8]
  IC50: 1.63 µM
[9]
  IC50: < 2.5 µM

## COc1nc2occc2nc1NC(=O)N1CCN(c2cc(C)cc(C)c2)CC1 [Example 5, 4-(3,5-Dimethylphenyl)-N-(3-methoxyfuro[2,3-b]pyrazin-2-yl)piperazine-1-carboxamide]
[1]
  IC50: 1.12 µM
[2]
  IC50: < 2.5 µM
[3]
  IC50: 1.72 µM
[4]
  IC50: 1.32 µM
[5]
  IC50: < 2.5 µM
[6]
  IC50: < 2.5 µM
[7]
  IC50: < 2.5 µM
[8]
  IC50: < 2.5 µM
[9]
  IC50: 2.35 µM
